Where “and” joins values, the source holds several entries; their conditions need not be identical. Equal values may be shown once.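 In this assay, cells in 96-well plates receive the compound at five concentrations for 48 hours. Endpoints are linearly interpolated between the surrounding concentrations. GI50: concentration for 50% inhibition of growth. TGI: concentration producing complete growth inhibition.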

Some test systems named below: KM12 colon; M14 melanoma; MDA-MB-435; MOLT-4 leukemia; NCI-H23 lung; OVCAR-4 ovarian; OVCAR-5 ovarian; OVCAR-8 ovarian; SK-MEL-28 melanoma; SW-620 colon.
Holding throughout (assay): NCI anticancer screen, dose series, 48 h

In the case of `CN(CCNC(=O)c1c[nH]c2c1Cc1ccccc1-2)CCNC(=O)c1c[nH]c2c1Cc1ccccc1-2`, the TGI in the assay on KM12 colon is greater than 100 µM; with M14 melanoma, 84.6 µM; with MDA-MB-435, 41.3 µM; with MOLT-4 leukemia, 63.7 µM; in the assay with NCI-H23 lung it was greater than 100 µM; in the assay on OVCAR-4 ovarian, greater than 100 µM. The TGI in the assay on OVCAR-5 ovarian, in the assay with OVCAR-8 ovarian, in the assay on SK-MEL-28 melanoma and in the assay on SW-620 colon was greater than 100 µM in each case.
As to `OC1(c2ccc(Cl)cc2)c2ccccc2-c2nc3ccccc3n21` (stereo not given), the TGI in the assay with KM12 colon, with M14 melanoma, in the assay on MDA-MB-435, with MOLT-4 leukemia, in the assay on NCI-H23 lung and in the assay with OVCAR-4 ovarian was greater than 100 µM in each case. Also, the TGI in the assay on OVCAR-5 ovarian, in the assay with OVCAR-8 ovarian, with SK-MEL-28 melanoma and in the assay on SW-620 colon was greater than 100 µM in each case.
As to `CN(C)c1ccc(/C=C/c2sc3ccccc3[n+]2C)cc1`, the GI50 was 621 nM with KM12 colon; 3660 nM and 427 nM with M14 melanoma; 95.5 nM and 387 nM with OVCAR-8 ovarian. In addition, the TGI in the assay on KM12 colon is > 25.2 µM and 5.26 µM; in the assay with M14 melanoma, 16.2 µM and 3.29 µM; with MDA-MB-435, 5.64 µM and 3.94 µM; in the assay with MOLT-4 leukemia, 0.957 µM and 1.31 µM; in the assay with NCI-H23 lung, 8.47 µM and 16.7 µM; in the assay with OVCAR-4 ovarian, 10.2 µM and 9.3 µM. The TGI is 26.6 µM and 61.5 µM with OVCAR-5 ovarian; 1.17 µM and 6.8 µM in the assay with OVCAR-8 ovarian; 15.7 µM and 6.34 µM in the assay with SK-MEL-28 melanoma.
Take `Cc1cc(S(=O)(=O)Nc2n[nH]c(N)n2)c(Cl)cc1Cl`: the TGI in the assay on KM12 colon, with M14 melanoma, in the assay on MDA-MB-435, in the assay on MOLT-4 leukemia, with NCI-H23 lung and in the assay on OVCAR-4 ovarian was greater than 10 µM throughout. Besides, the TGI in the assay on OVCAR-5 ovarian, with OVCAR-8 ovarian, in the assay with SK-MEL-28 melanoma and in the assay with SW-620 colon was greater than 10 µM throughout.
Consider `CCC(C)C1=C(O)[N+]2([O-])Oc3ccc(-c4c(O)c(O)c(-c5ccc(OC(C)=O)cc5)c(OC(C)=O)c4OC(C)=O)cc3OC2(C(C)CC)C(=O)N1O` (stereo not given), for which the TGI in the assay with KM12 colon was greater than 50 µM; with M14 melanoma, greater than 50 µM; with MDA-MB-435 it was greater than 50 µM; with MOLT-4 leukemia, greater than 50 µM; in the assay with NCI-H23 lung, greater than 50 µM; in the assay on OVCAR-4 ovarian it was 41.4 µM and 46.7 µM. For the same compound, the TGI with OVCAR-5 ovarian, in the assay with OVCAR-8 ovarian, with SK-MEL-28 melanoma and in the assay with SW-620 colon was greater than 50 µM throughout.
On to `CC1(C)COC2=C(C1)C(=O)c1ccccc1C2=O`, for which the TGI is 3.23 µM in the assay on KM12 colon; 2.96 µM in the assay with M14 melanoma; 0.338 µM in the assay with MDA-MB-435; 3.91 µM in the assay with MOLT-4 leukemia; 3.46 µM in the assay on NCI-H23 lung; 2.9 µM in the assay with OVCAR-4 ovarian. The TGI in the assay on OVCAR-5 ovarian was found to be 3.15 µM; in the assay with OVCAR-8 ovarian, 1.53 µM; in the assay with SK-MEL-28 melanoma, 3.11 µM; in the assay with SW-620 colon, 4.03 µM.
In the case of `Cc1ccc2nc(-c3ccc(C(C)(C)C)cc3)oc(=O)c2c1`, the TGI came out at 20.3 µM in the assay with KM12 colon; 74 µM in the assay on M14 melanoma; 43 µM in the assay with MDA-MB-435; 39.3 µM in the assay on MOLT-4 leukemia; 68.1 µM in the assay with NCI-H23 lung; 90.3 µM in the assay on OVCAR-4 ovarian. The TGI with OVCAR-5 ovarian is 89.5 µM; in the assay on OVCAR-8 ovarian, 43.9 µM; with SK-MEL-28 melanoma, 62.1 µM; with SW-620 colon, greater than 100 µM.
As for `COC1(CC[C@@H](C)COC2OC(CO)C(O)C(O)C2O)O[C@H]2C[C@H]3[C@@H]4CC=C5C[C@@H](OC6OC(CO)C(O)C(OC7OC(CO)C(O)C(O)C7O)C6OC6OC(C)C(O)C(O)C6O)CC[C@]5(C)[C@H]4CC[C@]3(C)[C@H]2[C@@H]1C` (stereo not given in full), the TGI was 4.36 µM in the assay on KM12 colon; 5.41 µM in the assay with M14 melanoma; 8.52 µM with MDA-MB-435; greater than 31.6 µM with MOLT-4 leukemia; 28.2 µM in the assay with NCI-H23 lung; 28.4 µM in the assay with OVCAR-4 ovarian. The TGI in the assay on OVCAR-5 ovarian was greater than 39.4 µM; in the assay on OVCAR-8 ovarian, 59.7 µM; in the assay with SK-MEL-28 melanoma, 12.4 µM; in the assay with SW-620 colon, 6.51 µM.
On to `CC(=O)NC1=NC(=O)/C(=C/c2ccc(/C=C3/C(=O)N=C(NC(C)=O)N3C)cc2)N1C`, for which the TGI in the assay with KM12 colon, with M14 melanoma, in the assay on MDA-MB-435, in the assay on MOLT-4 leukemia, in the assay on NCI-H23 lung and in the assay with OVCAR-4 ovarian was greater than 100 µM in each case. Further, the TGI with OVCAR-5 ovarian, in the assay on OVCAR-8 ovarian, with SK-MEL-28 melanoma and in the assay with SW-620 colon was greater than 100 µM in each case.
Turning to `NCCN1C(=O)c2ccccc2C1c1ccc(Cl)cc1` (stereo not given), the TGI in the assay on KM12 colon, in the assay on M14 melanoma, with MDA-MB-435, in the assay on MOLT-4 leukemia, in the assay on NCI-H23 lung and with OVCAR-4 ovarian was greater than 100 µM in each case. In addition, the TGI in the assay with OVCAR-5 ovarian, in the assay with OVCAR-8 ovarian, in the assay on SK-MEL-28 melanoma and with SW-620 colon was greater than 100 µM in each case.
In the case of `CC(Oc1ccccc1)C(=O)NNC(=O)OC(C)(C)C` (stereo not given), the TGI with KM12 colon, with M14 melanoma, in the assay on MDA-MB-435, in the assay on MOLT-4 leukemia, with NCI-H23 lung and with OVCAR-4 ovarian was greater than 100 µM each time. For the same compound, the TGI in the assay on OVCAR-5 ovarian, in the assay with OVCAR-8 ovarian, with SK-MEL-28 melanoma and with SW-620 colon was greater than 100 µM in each case.
On to `COC(=O)C1(SC)C2CCC3C2CCC31` (stereo not given), for which the TGI in the assay with M14 melanoma, in the assay with MDA-MB-435, in the assay on MOLT-4 leukemia, in the assay with NCI-H23 lung, in the assay with OVCAR-4 ovarian and in the assay on OVCAR-5 ovarian was greater than 100 µM in each case. The TGI in the assay with OVCAR-8 ovarian, with SK-MEL-28 melanoma and in the assay on SW-620 colon was greater than 100 µM throughout.
Regarding `O=c1[nH]c(=O)n(COCc2ccccc2)cc1Nc1ccc(Br)cc1`, the TGI in the assay on KM12 colon, with M14 melanoma, in the assay on MDA-MB-435, in the assay with MOLT-4 leukemia, in the assay on NCI-H23 lung and in the assay on OVCAR-4 ovarian was greater than 100 µM each time. Also, the TGI in the assay on OVCAR-5 ovarian, with SK-MEL-28 melanoma and in the assay on SW-620 colon was greater than 100 µM in each case.

For the origin of these results see PubChem BioAssay (NCI).
